US11530216B2, “Deuterated colony stimulating factor-1 receptor (CSF-1R) inhibitors” (Genzyme Corporation, priority 2020, dated 2022)
Like-named read-outs stand apart in the source and are kept apart here.

Columns and labels:
[1] = Mouse hepatocyte intrinsic clearance; format: in vitro ADME; conditions: 1 μM, 0.5 million cells/mL
Protocol: (§1) Incubations were performed in 0.5 million hepatocytes cells/mL at 1 μM concentration of test compound in duplicate with rat, human, dog, monkey, or mouse hepatocytes, and the concentration-time course of test compound depletion was determined after withdrawing samples from the incubation at assay time points followed by liquid chromatography with tandem mass spectrometry analysis. An organic solvent was used to terminate incubations.

[2] = Human liver S-9 intrinsic clearance; format: in vitro ADME; conditions: human; for CLint scaled at 1 μM: s9
Protocol: as §1, with “1 mg/mL human liver cytosol with high aldehyde oxidase (AO)/xanthine oxidase (XO) activity or 2.5 mg/mL human liver S-9 fraction with high AO/XO activity” for “0.5 million hepatocytes cells/mL”, “duplicate,” for “duplicate with rat, human, dog, monkey, or mouse hepatocytes,”
(§2) These available known AO substrates along with the test compounds were analyzed using three in vitro systems (pooled human liver cytosol, liver S-9 fractions and human hepatocytes isolated from livers perfused with HTK media). Scaled unbound intrinsic clearances were calculated for the test compounds/new chemical entities and were compared to the in vivo unbound intrinsic clearances of the known AO substrates.

C57BL/6 EAE model = assay: MOG-induced EAE model; format: in vivo, mouse; conditions: 15 mg/kg p.o. BID for 7 days; for mean disease scores: female C57BL/6J mice
Protocol: Experimental autoimmune encephalomyelitis (EAE) is primarily used as a non-clinical model of autoimmune inflammatory diseases of the CNS, and resembles many aspects of human multiple sclerosis. The myelin oligodendrocyte glycoprotein (MOG)-induced EAE model is ideal for exploring this immune-mediated mechanism of neuroinflammation and demyelination.
Test articles: • MOG35-55 peptide (New England Peptides, lot #BU01787)—250 μg/mouse in 4 mg/mL complete Freund's adjuvant (CFA; Chondrex Inc, Cat #7009, lot #190446) Bordetella pertussis toxin (PTX, Sigma, cat #P7208-5OUG, lot #MKCL 1350)—280 ng/mouse in 200 μL PBS • CSF-1R inhibitors—15 mg/kg • Vehicle—0.5% methylcellulose/0.2% Tween-80 Delivery: • MOG peptide & CFA: subcutaneous injection to 2 sites in the hind flank (100 μL/site). • Bordetella pertussis toxin: i.v. injection of 280 ng/mouse in 200 μL PBS on Day 0 and 2. • CSF1R inhibitor: oral gavage every 12 hours • Vehicle: oral gavage every 12 hours Time points: • Day 0—Administer MOG peptide in CFA and PTX to Groups 1-3 • Day 2—Administer PTX by i.v. to Groups 1-3 • Day 9—Begin daily scoring of mice • Day 11-14—Randomize mice to groups when reach score of 1 and begin treatment • Day ˜18-21—After 7 days of treatment, perfuse mice and euthanize animals.
Mice were clinically assessed daily for signs of paralytic disease and weighed intermittently to document weight loss. At study termination, ½ brain was fixed for histology and brain/liver/plasma were collected for exposure. Spinal cord and whole blood was collected for flow cytometry. Additional plasma aliquots were saved for follow up analysis.
Female C57BL/6J mice were immunized with an emulsion of MOG35-55 peptide (250 μg/mouse) in complete Freund's adjuvant (CFA). […] Following EAE induction, the mice were monitored daily for paralytic symptoms and scored for their clinical presentation using a progressive scoring system (Score 0: no disease; Score 1: flaccid tail; Score 2: hindlimb weakness; Score 3: hindlimb paralysis; Score 4: Front limb weakness or partial paralysis; Score 5: death). […]

[3] = Human liver cytosol intrinsic clearance; format: in vitro ADME; conditions: human, cytosol
Protocol: as §1, with “1 mg/mL human liver cytosol with high aldehyde oxidase (AO)/xanthine oxidase (XO) activity or 2.5 mg/mL human liver S-9 fraction with high AO/XO activity” for “0.5 million hepatocytes cells/mL”, “duplicate,” for “duplicate with rat, human, dog, monkey, or mouse hepatocytes,”
as §2

[4] = Rat hepatocyte intrinsic clearance; format: in vitro ADME; conditions: 1 μM, 0.5 million cells/mL
Protocol: as §1

CYP2D6 = CYP2D6 (Homo sapiens (Human), UniProt P10635); assay: CYP inhibition in human liver microsomes, CYP2D6; format: in vitro ADME; conditions: dextromethorphan 10 μM, 30 min, read-out: CYP inhibition mean IC50 (INH) isoform: CYP2D6 Substrate: dextromethorphan
Chain of CYP2D6 (P10635 whole entry, canonical isoform): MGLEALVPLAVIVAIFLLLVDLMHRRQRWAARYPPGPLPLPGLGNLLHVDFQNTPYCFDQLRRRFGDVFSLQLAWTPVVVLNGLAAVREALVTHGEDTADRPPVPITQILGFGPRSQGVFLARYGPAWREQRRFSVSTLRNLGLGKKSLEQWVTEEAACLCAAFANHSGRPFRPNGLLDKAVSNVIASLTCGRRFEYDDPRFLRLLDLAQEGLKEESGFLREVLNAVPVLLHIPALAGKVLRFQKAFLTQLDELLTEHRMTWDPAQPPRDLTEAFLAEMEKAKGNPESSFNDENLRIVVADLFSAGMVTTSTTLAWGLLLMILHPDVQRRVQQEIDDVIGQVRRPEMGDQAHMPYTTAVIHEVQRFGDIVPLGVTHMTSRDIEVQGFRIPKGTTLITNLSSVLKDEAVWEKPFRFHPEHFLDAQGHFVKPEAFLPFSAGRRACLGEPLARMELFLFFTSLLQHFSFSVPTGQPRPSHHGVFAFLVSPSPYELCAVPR
Protocol: (§3) The objective of this assay method was to determine the inhibitory potential of test articles, in vitro, against specific cytochrome P450 (CYP) enzymes, using human liver microsomes (HLMs). The test compounds were diluted from pure DMSO stocks to a final test concentration range of 10 μM-0.07 μM in a 0.5% DMSO solution. […] After incubation, the samples were extracted, and protein precipitated in acetonitrile containing 0.1% formic acid. The samples were centrifuged to remove excess protein, and were analyzed by LDTD/MS/MS to determine IC50 values. Key concentrations of substrates were as follows: CYP2D6 Substrate—Dextromethorphan at 10 μM. CYP3A4 Substrates—Testosterone at 60 μM, and Midazolam at 2 μM. Dextromethorphan and testosterone were incubated with the test compounds for 30 minutes each. Midazolam was incubated with the test compounds for 10 minutes.

CYP3A4 = CYP3A4 (Homo sapiens (Human), UniProt P08684); assay: CYP inhibition in human liver microsomes, CYP3A4; format: in vitro ADME
Chain of CYP3A4 (P08684 whole entry): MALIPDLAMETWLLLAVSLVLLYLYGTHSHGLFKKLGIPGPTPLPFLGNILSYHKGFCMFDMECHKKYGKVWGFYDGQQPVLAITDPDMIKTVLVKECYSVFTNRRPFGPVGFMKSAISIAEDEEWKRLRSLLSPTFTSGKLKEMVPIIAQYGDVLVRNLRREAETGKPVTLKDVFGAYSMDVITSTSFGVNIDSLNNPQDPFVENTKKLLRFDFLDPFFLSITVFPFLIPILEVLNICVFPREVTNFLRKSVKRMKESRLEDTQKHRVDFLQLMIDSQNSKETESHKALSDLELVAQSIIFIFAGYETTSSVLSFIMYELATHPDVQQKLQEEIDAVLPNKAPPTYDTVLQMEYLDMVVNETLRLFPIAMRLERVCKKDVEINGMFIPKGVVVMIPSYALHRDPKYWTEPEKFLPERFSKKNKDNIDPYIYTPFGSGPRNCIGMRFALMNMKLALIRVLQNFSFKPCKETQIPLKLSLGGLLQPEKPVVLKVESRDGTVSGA
Protocol: as §3

[5] = system: MCP-1 production in BV2 murine microglial cells; assay: MCP-1 ELISA, BV2 microglial cells after CSF-1 stimulation; format: cell-based; conditions: Mus musculus, BV-2, 30 min pre-treatment, 100 ng/mL M-CSF 24 hours
Protocol: Microglia cells were allowed to rest overnight at 37° C., 5% CO2. […] After stimulation, the culture supernatant was removed from each well and aliquoted into two different 96-well plates for subsequent ELISA assays.

[6] = Monkey hepatocyte intrinsic clearance; format: in vitro ADME; conditions: 1 μM, 0.5 million cells/mL
Protocol: as §1

[7] = s9, Human Liver S-9 Intrinsic Clearance _1
[8] = s9, Human Liver S-9 Intrinsic Clearance _2
[9] = Human Liver Cytosol Intrinsic Clearance _1
[10] = Human Liver Cytosol Intrinsic Clearance _2
[11] = midazolam 2 μM, 10 min, read-out: CYP inhibition mean IC50 (INH) Isoform: CYP3A4 Substrate: midazolam
[12] = testosterone 60 μM, 30 min, read-out: CYP inhibition mean IC50 (INH) Isoform: CYP3A4 Substrate: testosterone

Row | SMILES | Mouse Hepatocyte Intrinsic Clearance [1] | CLint scaled at 1 μM [2] | microsomal CLint at 1 μM [2, 7] | microsomal CLint at 1 μM [2, 8] | mean disease scores (C57BL/6 EAE model) | CLint scaled at 1 μM [3] | microsomal CLint at 1 μM [3, 9] | microsomal CLint at 1 μM [3, 10] | Rat Hepatocyte Intrinsic Clearance [4] | IC50 (CYP2D6) | IC50 (CYP3A4; [11]) | IC50 (CYP3A4; [12]) | IC50 [5] | Monkey Hepatocyte Intrinsic Clearance [6] | paralytic symptoms (C57BL/6 EAE model; compared with Compound 24)
1 | COc1ccc(C2Oc3c(OC)cc(Cn4cnc5cccnc54)cc3O[C@H]2C)cn1 (some centres unmarked) [Compound 24] | 9.36 μL/min/10^7 cells | 9 mL/min/kg | 3.06 µL/min/mg | 2.76 µL/min/mg | significantly mean disease scores | 10.5 mL/min/kg | 5.1 µL/min/mg | 5 µL/min/mg | 8.72 μL/min/10^7 cells | > 10 µM | > 10 µM | > 10 µM | 0.0288 to 0.0365 µM | >92 μL/min/10^7 cells | 
2 | [2H]c1nc2cccnc2n1Cc1cc(OC)c2c(c1)O[C@@H](C)[C@H](c1ccc(OC)nc1)O2 [Compound 6, 3-(((2S,3S)-8-methoxy-2-(6-methoxypyridin-3-yl)-3-methyl-2,3-dihydrobenzo[b][1,4]dioxin-6-yl)methyl)-3H-imidazo[4,5-b]pyridine-2-d] | 6.63 μL/min/10^7 cells | 3.6 mL/min/kg | < 1.1 µL/min/mg | < 1.1 µL/min/mg | significantly mean disease scores | 3.9 mL/min/kg | 1.5 µL/min/mg | 2.2 µL/min/mg | 9.00 μL/min/10^7 cells | > 10 µM | > 10 µM | > 10 µM | 0.0288 to 0.0365 µM | 27.2 μL/min/10^7 cells | ameliorated paralytic symptoms to a surprisingly greater extent than nondeuterated Compound 24
